For assay [1], the system named is cultured porcine aortic valve subendothelial cells. The experiment in a line: 3H thymidine incorporation assay, serotonin-induced proliferation. The format is cell-based. On the procedure:
To examine the direct proliferative effects of serotonin, cultured porcine aortic valve subendothelial cells were treated with 1 μM, 100 nM, and 10 nM of serotonin and then tested using a ^3H thymidine incorporation assay.
A general note: Incorporation of labelled thymidine or its analogues reports DNA synthesis.

The test system of another assay is rabbit aortic valves. In words: 1% cholesterol diet in rabbits, aortic valve immunostaining (PCNA, osteopontin) and cholesterol levels. The format is in vivo, New Zealand rabbits. The note with it: 1% cholesterol diet for 12 weeks. As for the experimental part: In another experiment, osteopontin expression was evaluated. Osteopontin is a non-collagenous bone matrix protein found to be present in the hypercholesterolemic aortic valves. New Zealand rabbits (n=8) were fed with a 1% cholesterol diet for 12 weeks. Eight control animals were fed a normal chow diet. Aortic valves were cut and foam cells were identified by immunostaining for macrophage antibody. Cell proliferation was assessed by immunostaining for proliferating nuclear antigen (PCNA), and osteopontin (OP) for calcification. Transmission electron microscopy immunogold labeling confirmed osteopontin expression.

The subject of a further assay is nitric oxide synthase. The experiment in a line: Nitric oxide synthase activity in aortic valve endothelial cell lysates (3H-L-arginine to L-citrulline conversion). As to conditions: valvular cells treated with pravastatin. The format is cell-based, pigs. As for the experimental part:
To assess nitric oxide synthase activity, the aortic valve endothelial cell lysates were evaluated using an NADPH disphorase reaction. Briefly, each lysate was incubated for 30 minutes in a NOS assay buffer containing ^3H-L-arginine, NADPH (100 mM), tetrahydrobiopterin (1 mM), calmodulin ([…]), and CaCl2 (25 mM). The reaction was quenched with ice cold stop buffer (2 mM EDTA, 20 mM Hepes, pH 5.5). The mixture was passed over a Dowex AG50WX-8 Na form resin and washed with one mL stop buffer. Nitric oxide synthase activity was calculated to be the amount of L-arginine converted to L-citrulline that was inhibited by 1-NAME. A scintillation counter was used to determine the amount of radioactivity.

Molecules are shown by their SMILES.

Data on 4 molecules can be found in patent publication US20060040885A1, “Bioprosthetic heart valves” (Mayo Foundation for Medical Education and Research, a …, priority 1999, published 2006).

As for `NCCc1c[nH]c2ccc(O)cc12` [serotonin], the “increase in cell proliferation compared to untreated cells” value in assay [1] (serotonin 1 μM, 100 nM and 10 nM, p<0.001) amounted to 33 fold.
As for `CC(C)CCC[C@@H](C)[C@H]1CC[C@H]2[C@@H]3CC=C4C[C@@H](O)CC[C@]4(C)[C@H]3CC[C@]12C` [cholesterol], in the assay with rabbit aortic valves, the “number of proliferating cells (PCNA) in aortic valves compared to controls” value is recorded as “thousand-fold increase” and the “osteopontin expression in the atherosclerotic lesion of the aortic valves” value is on record as “increased osteopontin expression”.
`CC[C@H](C)C(=O)O[C@H]1C[C@H](O)C=C2C=C[C@H](C)[C@H](CC[C@@H](O)C[C@@H](O)CC(=O)O)[C@H]21` [Pravastatin, pravastatin]: the “nitric oxide synthase activity versus cells treated with serum-free media alone” value in the assay on nitric oxide synthase is reported as “about 100 fold”.
As for `CSc1ccc2c(c1)C(N1CCN(C)CC1)Cc1ccccc1S2` (centres unmarked) [methiothepin], the “effect on serotonin-induced proliferation” value in assay [1] (methiothepin 7 nM with serotonin) is “inhibited the serotonin-induced proliferation”.
